In article PMC3660600, “Brevilin A, a Novel Natural Product, Inhibits Janus Kinase Activity and Blocks STAT3 Signaling in Cancer Cells” (PLoS ONE, 2013):

Experiments:
c-Src = c-Src (Homo sapiens, UniProt P12931); assay: phosphotyrosine Western blot of immunoprecipitated Flag-c-Src from treated HEK293T cells ([…], […] h); type: cell-based
Tyk2 = biological target: T1, Tyk2 (Homo sapiens, UniProt P29597); assay: in vitro kinase assay with purified Tyk2-JH1 and recombinant hSTAT3 substrate, Western blot pTyr705-STAT3 ([…]); type: biochemical
T1 construct: JH1 tyrosine kinase domain, C-terminal Flag-His tag, purified from HEK293T
T1 sequence (P29597 880-1187 limits assumed): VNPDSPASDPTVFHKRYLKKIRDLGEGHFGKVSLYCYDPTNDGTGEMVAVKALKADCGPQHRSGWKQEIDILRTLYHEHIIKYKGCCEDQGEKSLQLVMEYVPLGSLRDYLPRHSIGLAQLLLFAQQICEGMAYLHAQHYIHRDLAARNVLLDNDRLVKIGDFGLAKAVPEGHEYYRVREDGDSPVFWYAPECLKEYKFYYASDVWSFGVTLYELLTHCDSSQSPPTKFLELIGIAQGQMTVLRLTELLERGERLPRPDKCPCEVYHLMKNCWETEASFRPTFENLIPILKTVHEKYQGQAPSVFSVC

JAK1 = biological target: T2, JAK1 (Homo sapiens, UniProt P23458); assay: total tyrosine, STAT3 and STAT1 phosphorylation in HEK293T over-expressing JAK1-JH1, Western blot; type: cell-based
T2 construct: JH1 domain
T2 sequence (P23458 875-1153 limits assumed): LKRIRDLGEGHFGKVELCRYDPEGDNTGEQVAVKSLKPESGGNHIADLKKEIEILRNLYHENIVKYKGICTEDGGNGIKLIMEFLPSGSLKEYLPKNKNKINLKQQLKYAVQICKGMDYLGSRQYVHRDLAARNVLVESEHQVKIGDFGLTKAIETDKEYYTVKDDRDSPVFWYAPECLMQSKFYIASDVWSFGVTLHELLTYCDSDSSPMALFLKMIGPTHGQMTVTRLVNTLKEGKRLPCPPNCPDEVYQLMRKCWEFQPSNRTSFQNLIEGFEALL

JAK3 = biological target: T3, JAK3 (Homo sapiens, UniProt P52333); assay: total tyrosine, STAT3 and STAT1 phosphorylation in HEK293T over-expressing JAK3-JH1, Western blot; type: cell-based
T3 construct: JH1 domain
T3 sequence (P52333 781-1124 limits assumed): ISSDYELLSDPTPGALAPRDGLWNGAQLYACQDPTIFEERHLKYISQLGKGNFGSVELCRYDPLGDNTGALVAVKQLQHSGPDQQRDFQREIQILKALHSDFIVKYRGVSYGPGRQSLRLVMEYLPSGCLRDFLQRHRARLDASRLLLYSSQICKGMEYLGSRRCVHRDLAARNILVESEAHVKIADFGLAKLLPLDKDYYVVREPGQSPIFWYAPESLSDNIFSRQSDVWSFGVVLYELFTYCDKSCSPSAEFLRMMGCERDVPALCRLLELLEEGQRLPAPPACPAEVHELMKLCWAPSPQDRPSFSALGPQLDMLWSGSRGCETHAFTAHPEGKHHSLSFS

c-Src, sequence (P12931 2-536): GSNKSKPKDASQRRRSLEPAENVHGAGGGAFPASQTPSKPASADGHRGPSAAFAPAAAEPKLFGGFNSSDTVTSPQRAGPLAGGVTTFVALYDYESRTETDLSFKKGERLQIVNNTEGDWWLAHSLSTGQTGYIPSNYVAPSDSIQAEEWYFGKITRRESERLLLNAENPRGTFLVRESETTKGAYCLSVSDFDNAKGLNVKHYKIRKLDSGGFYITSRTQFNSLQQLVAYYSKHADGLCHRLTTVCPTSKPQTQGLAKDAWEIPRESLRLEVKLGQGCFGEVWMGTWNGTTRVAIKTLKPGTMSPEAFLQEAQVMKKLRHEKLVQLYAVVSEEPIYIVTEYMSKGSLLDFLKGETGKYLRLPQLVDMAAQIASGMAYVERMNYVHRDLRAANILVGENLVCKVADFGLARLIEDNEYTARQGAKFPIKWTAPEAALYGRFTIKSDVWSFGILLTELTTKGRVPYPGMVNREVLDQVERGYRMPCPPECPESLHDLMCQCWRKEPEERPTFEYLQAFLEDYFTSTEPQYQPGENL

SMILES: Cc1cc(Nc2ncc3cc(-c4c(Cl)cccc4Cl)c(=O)n(C)c3n2)ccc1F [PD-180970]
- phosphotyrosine Western blot of immunoprecipitated Flag-c-Src from treated HEK29 (c-Src): IP results showed that PD180970 was able to decrease Src phosphorylation while Brevilin A was not

SMILES: C/C=C(/C)C(=O)O[C@H]1[C@@H]2[C@H](C)C(=O)O[C@@H]2C[C@@H](C)[C@@H]2C=CC(=O)[C@]21C [Brevilin A]
- in vitro kinase assay with purified Tyk2-JH1 and recombinant hSTAT3 substrate, W (Tyk2): Western-Blot showed that Brevilin A inhibited Tyk2-JH1 kinase activity directly
- IC50 (JAK1): IC50 measurements of four JAKs-JH1 truncated kinases.
- IC50 (JAK3): IC50 measurements of four JAKs-JH1 truncated kinases.
